Key:
[1] = test system: blackgrass (Alopecurus myosuroides); experiment: Test A postemergence, blackgrass; assay type: in vivo; details: Alopecurus myosuroides, post-emergence, 240 h, 0 to 100 scale (0 no effect, 100 complete control), read-out: Plant response rating, Blackgrass; for pest or weed control at 31 g/ha: 31 g ai/ha; for pest or weed control at 125 g/ha: 125 g ai/ha
[2] = test system: pigweed (Amaranthus retroflexus); experiment: Test A preemergence, pigweed; assay type: in vivo; details: Amaranthus retroflexus, pre-emergence, 240 h, 0 to 100 scale (0 no effect, 100 complete control), read-out: Plant response rating, Pigweed; for pest or weed control at 31 g/ha: 31 g ai/ha; for pest or weed control at 125 g/ha: 125 g ai/ha
[3] = test system: ragweed (common ragweed, Ambrosia elatior); experiment: Test A preemergence, ragweed; assay type: in vivo; details: Ambrosia artemisiifolia, pre-emergence, 240 h, 0 to 100 scale (0 no effect, 100 complete control), read-out: Plant response rating, Ragweed; for pest or weed control at 31 g/ha: 31 g ai/ha; for pest or weed control at 125 g/ha: 125 g ai/ha
kochia (Kochia scoparia) [4] = experiment: Test A preemergence, kochia; assay type: in vivo; details: Bassia scoparia, pre-emergence, 240 h, 0 to 100 scale (0 no effect, 100 complete control), read-out: Plant response rating, Kochia; for pest or weed control at 31 g/ha: 31 g ai/ha; for pest or weed control at 125 g/ha: 125 g ai/ha
[5] = test system: barnyardgrass (Echinochloa crus-galli); experiment: Test A preemergence, barnyardgrass; assay type: in vivo; details: Echinochloa crus-galli, pre-emergence, 240 h, 0 to 100 scale (0 no effect, 100 complete control), read-out: Plant response rating, Barnyardgrass; for pest or weed control at 31 g/ha: 31 g ai/ha; for pest or weed control at 125 g/ha: 125 g ai/ha
[6] = test system: pigweed (Amaranthus retroflexus); experiment: Test A postemergence, pigweed; assay type: in vivo; details: Amaranthus retroflexus, post-emergence, 240 h, 0 to 100 scale (0 no effect, 100 complete control), read-out: Plant response rating, Pigweed; for pest or weed control at 31 g/ha: 31 g ai/ha; for pest or weed control at 125 g/ha: 125 g ai/ha
[7] = test system: barnyardgrass (Echinochloa crus-galli); experiment: Test A postemergence, barnyardgrass; assay type: in vivo; details: Echinochloa crus-galli, post-emergence, 240 h, 0 to 100 scale (0 no effect, 100 complete control), read-out: Plant response rating, Barnyardgrass; for pest or weed control at 31 g/ha: 31 g ai/ha; for pest or weed control at 125 g/ha: 125 g ai/ha
corn (Zea mays) = experiment: Test A postemergence, corn; assay type: in vivo; details: Zea mays, post-emergence, 240 h, 0 to 100 scale (0 no effect, 100 complete control); for Corn plant response rating (crop injury, 0 = no effect, 100 = complete kill) at 31 g/ha: 31 g ai/ha; for Corn plant response rating (crop injury, 0 = no effect, 100 = complete kill) at 125 g/ha: 125 g ai/ha
[8] = test system: ragweed (common ragweed, Ambrosia elatior); experiment: Test A postemergence, ragweed; assay type: in vivo; details: Ambrosia artemisiifolia, post-emergence, 240 h, 0 to 100 scale (0 no effect, 100 complete control), read-out: Plant response rating, Ragweed; for pest or weed control at 31 g/ha: 31 g ai/ha; for pest or weed control at 125 g/ha: 125 g ai/ha
[9] = test system: galium (catchweed bedstraw, Galium aparine); experiment: Test A postemergence, galium; assay type: in vivo; details: Galium, post-emergence, 240 h, 0 to 100 scale (0 no effect, 100 complete control), read-out: Plant response rating, Galium; for pest or weed control at 31 g/ha: 31 g ai/ha; for pest or weed control at 125 g/ha: 125 g ai/ha
rice (Oryza sativa) = experiment: Test B flooded paddy test, rice; details: Oryza sativa, read-out: Plant response rating, Rice (0 to 100 scale, 0 is no effect, 100 is complete control)
[10] = test system: ducksalad (Heteranthera limosa); experiment: Test B flooded paddy test, ducksalad; details: Heteranthera limosa, read-out: Plant response rating, Ducksalad (0 to 100 scale, 0 is no effect, 100 is complete control)
[11] = test system: ryegrass, Italian (Italian ryegrass, Lolium multiflorum); experiment: Test A preemergence, ryegrass, Italian; assay type: in vivo; details: Lolium multiflorum, pre-emergence, 240 h, 0 to 100 scale (0 no effect, 100 complete control), read-out: Plant response rating, Ryegrass, Italian; for pest or weed control at 31 g/ha: 31 g ai/ha; for pest or weed control at 125 g/ha: 125 g ai/ha
[12] = test system: barnyardgrass (Echinochloa crus-galli); experiment: Test B flooded paddy test, barnyardgrass; details: Echinochloa crus-galli, read-out: Plant response rating, Barnyardgrass (0 to 100 scale, 0 is no effect, 100 is complete control)
[13] = test system: wheat (Triticum aestivum); experiment: Test A postemergence, wheat; assay type: in vivo; details: Triticum aestivum, post-emergence, 240 h, 0 to 100 scale (0 no effect, 100 complete control), read-out: Plant response rating, Wheat; for plant injury at 31 g/ha: 31 g ai/ha; for plant injury at 125 g/ha: 125 g ai/ha
kochia (Kochia scoparia) [14] = experiment: Test A postemergence, kochia; assay type: in vivo; details: Bassia scoparia, post-emergence, 240 h, 0 to 100 scale (0 no effect, 100 complete control), read-out: Plant response rating, Kochia; for pest or weed control at 31 g/ha: 31 g ai/ha; for pest or weed control at 125 g/ha: 125 g ai/ha
[15] = test system: ryegrass, Italian (Italian ryegrass, Lolium multiflorum); experiment: Test A postemergence, ryegrass, Italian; assay type: in vivo; details: Lolium multiflorum, post-emergence, 240 h, 0 to 100 scale (0 no effect, 100 complete control), read-out: Plant response rating, Ryegrass, Italian; for pest or weed control at 31 g/ha: 31 g ai/ha; for pest or weed control at 125 g/ha: 125 g ai/ha

| SMILES | pest or weed control at 31 g/ha [1] | pest or weed control at 125 g/ha [1] | pest or weed control at 31 g/ha [2] | pest or weed control at 125 g/ha [2] | pest or weed control at 31 g/ha [3] | pest or weed control at 125 g/ha [3] | pest or weed control at 31 g/ha (kochia (Kochia scoparia) [4]) | pest or weed control at 125 g/ha (kochia (Kochia scoparia) [4]) | pest or weed control at 31 g/ha [5] | pest or weed control at 125 g/ha [5] | pest or weed control at 31 g/ha [6] | pest or weed control at 125 g/ha [6] | pest or weed control at 31 g/ha [7] | pest or weed control at 125 g/ha [7] | Corn plant response rating (crop injury, 0 = no effect, 100 = complete kill) at 31 g/ha (corn (Zea mays)) | Corn plant response rating (crop injury, 0 = no effect, 100 = complete kill) at 125 g/ha (corn (Zea mays)) | pest or weed control at 31 g/ha [8] | pest or weed control at 125 g/ha [8] | pest or weed control at 31 g/ha [9] | pest or weed control at 125 g/ha [9] | other results |
| --- | --- | --- | --- | --- | --- | --- | --- | --- | --- | --- | --- | --- | --- | --- | --- | --- | --- | --- | --- | --- | --- |
| O=C1O[C@@H](CCC(F)(F)F)c2c(Oc3ncc(Cl)cn3)cccc21 [Compound 18, (3S)-4-[(5-Chloro-2-pyrimidinyl)oxy]-3-(3,3,3-trifluoropropyl)-1(3H)-isobenzofuranone] | 0% | 0% | 0% | 0% | 0% | 0% | 0% | 0% | 0% | 0% | 10% | 20% | 0% | 0% | 0% | 10% | 0% | 0% | 0% | 10% | plant injury at 250 g/ha (rice (Oryza sativa)): 0%; pest or weed control at 250 g/ha [10]: 0%; pest or weed control at 31 g/ha [11]: 0%; pest or weed control at 125 g/ha [11]: 0%; pest or weed control at 250 g/ha [12]: 0%; plant injury at 31 g/ha [13]: 0%; plant injury at 125 g/ha [13]: 0%; pest or weed control at 31 g/ha (kochia (Kochia scoparia) [14]): 0%; pest or weed control at 125 g/ha (kochia (Kochia scoparia) [14]): 10%; pest or weed control at 31 g/ha [15]: 0%; pest or weed control at 125 g/ha [15]: 0% |
| O=C1O[C@H](CCC(F)(F)F)c2c(Oc3ncc(Cl)cn3)cccc21 [Compound 19, (3R)-4-[(5-Chloro-2-pyrimidinyl)oxy]-3-(3,3,3-trifluoropropyl)-1(3H)-isobenzofuranone] | 100% | 100% | 100% | 100% | 0% | 60% | 90% | 100% | 80% | 100% | 100% | 100% | 50% | 100% | 40% | 70% | 30% | 70% | 90% | 100% | plant injury at 250 g/ha (rice (Oryza sativa)): 50%; pest or weed control at 250 g/ha [10]: 100%; pest or weed control at 31 g/ha [11]: 10%; pest or weed control at 125 g/ha [11]: 90%; pest or weed control at 250 g/ha [12]: 60%; plant injury at 31 g/ha [13]: 20%; plant injury at 125 g/ha [13]: 100%; pest or weed control at 31 g/ha (kochia (Kochia scoparia) [14]): 80%; pest or weed control at 125 g/ha (kochia (Kochia scoparia) [14]): 100%; pest or weed control at 31 g/ha [15]: 80%; pest or weed control at 125 g/ha [15]: 100% |
| FC(F)(F)CC[C@H]1OCc2cccc(Oc3ncc(Cl)cn3)c21 [Compound 20, 5-Chloro-2-[[(3R)-1,3-dihydro-3-(3,3,3-trifluoropropyl)-4-isobenzofuranyl]oxy]-pyrimidine] | 80% | 100% | 100% | 100% | 30% | 100% | 100% | 100% | 70% | 100% | 100% | 100% | 40% | 100% | 30% | 50% | 30% | 70% | 90% | 100% | plant injury at 250 g/ha (rice (Oryza sativa)): 30%; pest or weed control at 250 g/ha [10]: 100%; pest or weed control at 31 g/ha [11]: 10%; pest or weed control at 125 g/ha [11]: 60%; pest or weed control at 250 g/ha [12]: 90%; plant injury at 31 g/ha [13]: 20%; plant injury at 125 g/ha [13]: 90%; pest or weed control at 31 g/ha (kochia (Kochia scoparia) [14]): 90%; pest or weed control at 125 g/ha (kochia (Kochia scoparia) [14]): 100%; pest or weed control at 31 g/ha [15]: 30%; pest or weed control at 125 g/ha [15]: 80% |
